From patent publication US8993756B2 (Merck Sharp & Dohme Corp., priority 2011, dated 2015) come the findings set out here.

As usually defined, the IC50 is the concentration needed to halve the response being measured.

Bounds are passed on as bounds.

The target in one experiment is JAK2 (Homo sapiens (Human), UniProt O60674). The experiment can be described thus: Jak Biochemical HTRF Assay (JAK2). To be noted: recombinant GST-tagged catalytic domain, [ATP] 8.5 μM. In general terms: Time-resolved FRET reads energy transfer from a long-lived donor to a nearby acceptor.
JAK2, sequence (O60674 849-1124): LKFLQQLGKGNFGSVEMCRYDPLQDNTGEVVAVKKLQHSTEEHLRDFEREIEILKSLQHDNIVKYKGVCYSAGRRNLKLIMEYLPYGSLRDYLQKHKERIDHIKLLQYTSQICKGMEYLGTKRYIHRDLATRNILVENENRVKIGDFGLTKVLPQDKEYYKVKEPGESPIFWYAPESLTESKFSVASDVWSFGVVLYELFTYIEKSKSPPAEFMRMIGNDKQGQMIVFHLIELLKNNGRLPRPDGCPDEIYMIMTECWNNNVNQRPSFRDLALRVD
The next experiment concerns the target JAK3 (Homo sapiens (Human), UniProt P52333). Description: Jak Biochemical HTRF Assay (JAK3). To be noted: recombinant GST-tagged catalytic domain, [ATP] 2.9 μM.

JAK3, sequence (P52333 822-1111): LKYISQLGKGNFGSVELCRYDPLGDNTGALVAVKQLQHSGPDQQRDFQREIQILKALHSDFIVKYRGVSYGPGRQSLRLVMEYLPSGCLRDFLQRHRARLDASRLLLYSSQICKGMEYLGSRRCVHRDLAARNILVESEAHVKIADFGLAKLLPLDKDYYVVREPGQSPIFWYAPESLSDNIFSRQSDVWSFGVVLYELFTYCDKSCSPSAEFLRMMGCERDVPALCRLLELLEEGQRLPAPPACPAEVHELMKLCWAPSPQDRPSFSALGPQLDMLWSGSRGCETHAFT

Regarding `C=C(C)C(=O)Nc1cc(-c2ncnc3[nH]cc(C(=O)OCC)c23)ccc1CO` [Example 4-25, ethyl 4-{4-(hydroxymethyl)-3-[(2-methylacryloyl)amino]phenyl}-7H-pyrrolo[2,3-d]pyrimidine-5-carboxylate], the half-inhibitory concentration (IC50) on JAK2 was > 1500 nM; at JAK3 it was 0.11 nM.

With `C=C(C)C(=O)Nc1cc(C)cc(-c2ncnc3[nH]cc(C(=O)OCC)c23)c1` [Example 4-26, ethyl 4-{3-methyl-5-[(2-methylacryloyl)amino]phenyl}-7H-pyrrolo[2,3-d]pyrimidine-5-carboxylate], the IC50 on JAK2 is > 1500 nM; on JAK3, 0.19 nM.

Consider `C=C(C)C(=O)Nc1cc(-c2ncnc3[nH]cc(C(=O)OCC)c23)ccc1C#N` [Example 4-27, ethyl 4-{4-cyano-3-[(2-methylacryloyl)amino]phenyl}-7H-pyrrolo[2,3-d]pyrimidine-5-carboxylate], for which the IC50 was > 1500 nM at JAK2 and 0.14 nM at JAK3.

As to `C=C(C)C(=O)Nc1cc(-c2ncnc3[nH]cc(C(=O)OCC)c23)ccc1C(=O)N(C)C` [Example 4-28, ethyl 4-{4-(dimethylcarbamoyl)-3-[(2-methylacryloyl)amino]phenyl}-7H-pyrrolo[2,3-d]pyrimidine-5-carboxylate], the IC50 is > 1500 nM at JAK2 and 1.5 nM on JAK3.

`C=C(C)C(=O)Nc1cc(-c2ncnc3[nH]cc(C(=O)OCC)c23)ccc1S(C)(=O)=O` [Example 4-29, ethyl 4-{3-[(2-methylacryloyl)amino]-4-(methylsulfonyl)phenyl}-7H-pyrrolo[2,3-d]pyrimidine-5-carboxylate]: the IC50 at JAK2 was > 1500 nM; on JAK3, 0.087 nM.

For the molecule `C=C(C)C(=O)Nc1cc(-c2ncnc3[nH]cc(C(=O)OCC)c23)ccc1CN(C)C` [Example 4-30, ethyl 4-{4-[(dimethylamino)methyl]-3-[(2-methylacryloyl)amino]phenyl}-7H-pyrrolo[2,3-d]pyrimidine-5-carboxylate], the IC50 at JAK2 was > 1500 nM; on JAK3, 1.5 nM.

Regarding `C=C(C)C(=O)Nc1cc(-c2ncnc3[nH]cc(C(=O)OCC)c23)ccc1O` [Example 4-31, ethyl 4-{4-hydroxy-3-[(2-methylacryloyl)amino]phenyl}-7H-pyrrolo[2,3-d]pyrimidine-5-carboxylate], the IC50 was > 1500 nM at JAK2 and 0.11 nM at JAK3.

With `C=C(C)C(=O)Nc1cc(-c2ncnc3[nH]cc(C(=O)OCC)c23)cnc1OC` [Example 4-32, ethyl 4-{6-methoxy-5-[(2-methylacryloyl)amino]pyridin-3-yl)-7H-pyrrolo[2,3-d]pyrimidine-5-carboxylate], the 50% inhibitory concentration (IC50) was > 1500 nM on JAK2 and 0.68 nM on JAK3.

With `C=C(C)C(=O)Nc1cc(-c2ncnc3[nH]cc(C(=O)OCC)c23)c[nH]c1=O` [Example 4-33, ethyl 4-{5-[(2-methylacryloyl)amino]-6-oxo-1,6-dihydropyridin-3-yl}-7H-pyrrolo[2,3-d]pyrimidine-5-carboxylate], the 50% inhibitory concentration (IC50) on JAK2 was > 1500 nM; at JAK3 it was 0.47 nM.

In the case of `C=C(C)C(=O)Nc1cc(-c2ncnc3[nH]cc(C(=O)OCC)c23)cn(C)c1=O` [Example 4-34, ethyl 4-{1-methyl-5-[(2-methylacryloyl)amino]-6-oxo-1,6-dihydropyridin-3-yl}-7H-pyrrolo[2,3-d]pyrimidine-5-carboxylate], the IC50 at JAK2 is > 1500 nM; on JAK3, 1.1 nM.

Regarding `C=C(C)C(=O)Nc1cc(-c2ncnc3[nH]cc(C(=O)OCC)c23)ccn1` [Example 4-35, ethyl 4-{2-[(2-methylacryloyl)amino]pyridin-4-yl}-7H-pyrrolo[2,3-d]pyrimidine-5-carboxylate], the half-maximal inhibitory concentration (IC50) at JAK2 is > 1500 nM; on JAK3 it was 0.049 nM.

For `C=C(F)C(=O)Nc1cccc(-c2ncnc3[nH]cc(C(=O)OCC)c23)c1` [Example 5-1, Ethyl 4-{3-[(2-fluoroacryloyl)amino]phenyl}-7H-pyrrolo[2,3-d]pyrimidine-5-carboxylate], the half-maximal inhibitory concentration (IC50) on JAK2 was > 1500 nM; at JAK3 it was 0.024 nM.

Consider `CC#CC(=O)Nc1cccc(-c2ncnc3[nH]cc(C(=O)OCC)c23)c1` [Example 5-3, ethyl 4-[3-(but-2-ynoylamino)phenyl]-7H-pyrrolo[2,3-d]pyrimidine-5-carboxylate], for which the IC50 is > 1500 nM at JAK2 and 0.072 nM at JAK3.

On to `CCOC(=O)c1c[nH]c2ncnc(-c3cccc(NC(=O)CC#N)c3)c12` [Example 5-4, ethyl 4-{3-[(cyanoacetyl)amino]phenyl}-7H-pyrrolo[2,3-d]pyrimidine-5-carboxylate], for which the IC50 at JAK2 (given as range class) and on JAK3 (given as range class) was 10 to 500 nM in each case.

As to `C=C(Br)C(=O)Nc1cccc(-c2ncnc3[nH]cc(C(=O)OCC)c23)c1` [Example 5-5, ethyl 4-{3-[(2-bromoacryloyl)amino]phenyl}-7H-pyrrolo[2,3-d]pyrimidine-5-carboxylate], the 50% inhibitory concentration (IC50) on JAK2 came out at 892 nM; at JAK3, 0.043 nM.

As for `C=C(Cl)C(=O)Nc1cccc(-c2ncnc3[nH]cc(C(=O)OCC)c23)c1` [Example 5-6, ethyl 4-{3-[(2-chloroacryloyl)amino]phenyl}-7H-pyrrolo[2,3-d]pyrimidine-5-carboxylate], the IC50 at JAK2 is > 1500 nM; on JAK3, 0.22 nM.

`CCOC(=O)c1c[nH]c2ncnc(-c3cccc(NC(=O)CCC(C)=O)c3)c12` [Example 5-7, ethyl 4-{3-[(4-oxopentanoyl)amino]phenyl}-7H-pyrrolo[2,3-d]pyrimidine-5-carboxylate]: the half-inhibitory concentration (IC50) was > 500 nM at JAK2 (given as range class) and 10 to 500 nM on JAK3 (given as range class).

As to `CCOC(=O)c1c[nH]c2ncnc(-c3cccc(NC(=O)/C=C/COC)c3)c12` [Example 5-8, ethyl 4-(3-{[(2E)-4-methoxybut-2-enoyl]amino}phenyl)-7H-pyrrolo[2,3-d]pyrimidine-5-carboxylate], the concentration for half-maximal inhibition (IC50) at JAK2 is > 1500 nM; at JAK3, 2.1 nM.

As for `C/C=C\C(=O)Nc1cccc(-c2ncnc3[nH]cc(C(=O)OCC)c23)c1` [Example 5-9, ethyl 4-{3-[(2Z)-but-2-enoylamino]phenyl}-7H-pyrrolo[2,3-d]pyrimidine-5-carboxylate], the concentration for half-maximal inhibition (IC50) at JAK2 is > 1500 nM; on JAK3, 8.3 nM.

Take `C=C(F)C(=O)Nc1cc(-c2ncnc3[nH]cc(C(=O)OCC)c23)ccc1F` [Example 5-10, ethyl 4-{4-fluoro-3-[(2-fluoroacryloyl)amino]phenyl}-7H-pyrrolo[2,3-d]pyrimidine-5-carboxylate]: the IC50 was > 1500 nM on JAK2 and 0.013 nM at JAK3.

Take `CCOC(=O)c1c[nH]c2ncnc(-c3cccc(NC(=O)C4=COCCO4)c3)c12` [Example 5-13, ethyl 4-{3-[(5,6-dihydro-1,4-dioxin-2-ylcarbonyl)amino]phenyl}-7H-pyrrolo[2,3-d]pyrimidine-5-carboxylate]: the IC50 was > 500 nM on JAK2 (given as range class) and 10 to 500 nM at JAK3 (given as range class).

Turning to `CCOC(=O)c1c[nH]c2ncnc(-c3cccc(NC(=O)/C=C/C(C)=O)c3)c12` [Example 5-14, ethyl 4-(3-{[(2E)-4-oxopent-2-enoyl]amino}phenyl)-7H-pyrrolo[2,3-d]pyrimidine-5-carboxylate], the figures for the IC50 at JAK2 and at JAK3 were > 1500 nM and 5.3 nM, respectively.

Take `CCOC(=O)c1c[nH]c2ncnc(-c3cccc(NC(=O)/C=C/c4c(C)nn(C)c4C)c3)c12` [Example 5-15, ethyl 4-(3-{[(2E)-3-(1,3,5-trimethyl-1H-pyrazol-4-yl)prop-2-enoyl]amino}phenyl)-7H-pyrrolo[2,3-d]pyrimidine-5-carboxylate]: the IC50 on JAK2 (given as range class) was > 500 nM; on JAK3 (given as range class) it was 10 to 500 nM.

As for `CCOC(=O)c1c[nH]c2ncnc(-c3cccc(NC(=O)/C=C/c4ccccn4)c3)c12` [Example 5-16, ethyl 4-(3-{[(2E)-3-pyridin-2-ylprop-2-enoyl]amino}phenyl)-7H-pyrrolo[2,3-d]pyrimidine-5-carboxylate], the 50% inhibitory concentration (IC50) at JAK2 was 452 nM; on JAK3, 6.6 nM.

In the case of `CCOC(=O)c1c[nH]c2ncnc(-c3cccc(NC(=O)/C=C/c4ccncc4)c3)c12` [Example 5-17, ethyl 4-(3-{[(2E)-3-pyridin-4-ylprop-2-enoyl]amino}phenyl)-7H-pyrrolo[2,3-d]pyrimidine-5-carboxylate], the values for the concentration for half-maximal inhibition (IC50) on JAK2 and at JAK3 were > 1500 nM and 2 nM, respectively.

For the molecule `CCOC(=O)c1c[nH]c2ncnc(-c3cccc(NC(=O)c4c[nH]c(=O)[nH]c4=O)c3)c12` [Example 5-18, ethyl 4-(3-{[(2,4-dioxo-1,2,3,4-tetrahydropyrimidin-5-yl)carbonyl]amino}phenyl)-7H-pyrrolo[2,3-d]pyrimidine-5-carboxylate], the values for the IC50 at JAK2 (given as range class) and at JAK3 (given as range class) were > 500 nM and 10 to 500 nM, respectively.

Consider `CCOC(=O)c1c[nH]c2ncnc(-c3cccc(NC(=O)/C=C/c4c[nH]c5ccccc45)c3)c12` [Example 5-19, ethyl 4-(3-{[(2E)-3-(1H-indo1-3-yl)prop-2-enoyl]amino}phenyl)-7H-pyrrolo[2,3-d]pyrimidine-5-carboxylate], for which the half-inhibitory concentration (IC50) on JAK2 is > 1500 nM; at JAK3, 2.4 nM.

As for `CCOC(=O)c1c[nH]c2ncnc(-c3cccc(NC(=O)c4c[nH]c(=O)[nH]4)c3)c12` [Example 5-20, ethyl 4-(3-{[(2-oxo-2,3-dihydro-1H-imidazol-4-yl)carbonyl]amino}phenyl)-7H-pyrrolo[2,3-d]pyrimidine-5-carboxylate], the IC50 was > 500 nM on JAK2 (given as range class) and 10 to 500 nM on JAK3 (given as range class).

Consider `CCOC(=O)c1c[nH]c2ncnc(-c3cccc(NC(=O)/C=C/c4cccs4)c3)c12` [Example 5-21, ethyl 4-(3-{[(2E)-3-thiophen-2-ylprop-2-enoyl]amino}phenyl)-7H-pyrrolo[2,3-d]pyrimidine-5-carboxylate], for which the IC50 was > 500 nM on JAK2 (given as range class) and 10 to 500 nM on JAK3 (given as range class).

As to `CCOC(=O)c1c[nH]c2ncnc(-c3cccc(NC(=O)/C=C/c4ccoc4)c3)c12` [Example 5-22, ethyl 4-(3-{[(2E)-3-furan-3-ylprop-2-enoyl]amino}phenyl)-7H-pyrrolo[2,3-d]pyrimidine-5-carboxylate], the figures for the IC50 on JAK2 (given as range class) and on JAK3 (given as range class) were > 500 nM and 10 to 500 nM, respectively.
